We go through seven molecules from patent US20240417410A1, “TRICYCLIC COMPOUNDS FOR THE TREATMENT OF CANCER” (Hoffmann-La Roche Inc., priority 2023, published 2024).

pIC50: −log10 of the molar value.

The target of one assay is KRAS G12C-BRAF complex (Homo sapiens (Human), UniProt P01116+P62937, G12C). The assay is described as follows: KRAS-BRAF with CYPA (500 nM) interaction assay (TR-FRET, Example 136). The class given is biochemical. The conditions noted are these: KRAS G12C-BRAF disruption. The method, then:
In this example, TR-FRET was also used to measure the compound or compound-CYPA dependent disruption of the KRAS G12C-BRAF complex. This protocol was also used to measure disruption of KRAS G12D or KRAS G12V binding to BRAF by a compound of the invention, respectively. In assay buffer containing 25 mM HEPES PH=7.4 (4-(2-hydroxyethyl)-1-piperazineethanesulfonic acid, Thermo, 15630080), 0.002% Tween20, 0.1% BSA, 100 mM NaCl, 5 mM MgCl2, 10 μM GMPPNP (Guanosine 5′-[β,γ-imido]triphosphate trisodium salt hydrate, Sigma, G0635), […] 384-well assay plate at final concentrations of 50 nM, 6.25 nM and 1 nM, respectively. Compound was present in plate wells as a 16-point 3-fold dilution series starting at a final concentration of 10 μM and incubated for 3 hours. A mixture of MAb Anti-6His-XL665 (Cisbio, 61HISXLB) and Mab anti-GST-TB cryptate (Cisbio, 61GSTTLB) was then added at a final concentration of 6.67 nM and 0.21 nM, respectively, and the plate was incubated for an additional 1.5 hours. TR-FRET signal was read on a PHERstar FSX microplate reader (Ex320 nm, Em 665/615 nm). Compounds that facilitate disruption of the KRAS-BRAF complex were identified as those eliciting a decrease in the TR-FRET ratio relative to DMSO control wells.
A general note: In TR-FRET formats the signal depends on donor and acceptor labels being close together.

In assay [1] the test system is phosphorylation of ERK, KRAS G12C in NCI-H358 cells. The assay is described as follows: pERK inhibition assay. The class given is cell-based. The conditions noted are these: Homo sapiens, NCI-H358, 4 h. The method, then:
(§1) This assay is to measure the ability of test compounds in inhibiting the phosphorylation of ERK, the downstream signaling of KRAS G12C in NCI-H358 cells, KRAS G12D in AGS cells, and KRAS G12V in SW620. NCI-H358 (ATCC-CRL5807) cells, AGS (ATCC-CRL-1739) cells, SW620 (ATCC-CCL-227) cells were all grown and maintained using RPMI-1640 medium (Thermo Fisher Scientific) with 10% fetal bovine serum and 1% penicillin/streptomycin. On the day prior to compound addition, cells were plated in tissue culture-treated 96 well plates (Corning-3699) at a density of 30,000 cell/well, 20,000 cell/well, 30,000 cell/well for NCI-H358, AGS and SW620 respectively, and allowed for attachment overnight. Diluted compounds were then added in a final concentration of 0.5% DMSO. After 4 hours of incubation, the medium was removed, 100 μL of 4% formaldehyde was added, and the assay plates were incubated at room temperature for 20 minutes. The plates were then washed once with phosphate buffered saline (PBS), and permeabilized with 100 μL of chilled methanol for 10 minutes. Non-specific antibody binding to the plates was blocked using 50 μL 1X BSA blocking buffer (Thermo-37520, 10-fold dilution by Phosphate-Buffered Saline Tween (PBST) for at least 1 hour at room temperature.
(§2) The amount of phosphor-ERK was determined using an antibody specific for phosphorylated form of ERK. Primary antibody (PERK, CST-4370, Cell Signaling Technology) was diluted 1:300 in blocking buffer, with 50 μL aliquoted to each well, and incubated overnight at 4° C. Cells was washed five times for 5 minutes with PBST. Secondary antibody (HRP-linked anti-rabbit IgG, CST-7074, Cell Signaling Technology) was diluted 1:1000 in blocking buffer, and 50 μL was added to each well and incubated 1-2 hrs at room temperature. Cells was washed […] for 5 minutes with PBST, 100 μL TMB ELISA substrate (abcam-ab171523) were added and gently shake for 20 minutes. 50 μL stop solution (abcam-ab 171529) were added, and then read the signal (OD450) by EnVision.
(§3) IC50 was determined by fitting a 4-parameter sigmoidal concentration response model.

In assay [2] the test system is phosphorylation of ERK, KRAS G12D in AGS cells. Briefly: pERK inhibition assay. It counts as cell-based. The conditions noted are these: Homo sapiens, AGS, 4 h. The method, then: as §1, §2, §3
The test system of assay [3] is phosphorylation of ERK, KRAS G12V in SW620. Briefly: pERK inhibition assay. It counts as cell-based. The conditions noted are these: Homo sapiens, SW-620, 4 h, SW620 cells. The method, then: as §1, §2, §3
The test system of a further assay is AGS cells (KRAS G12D). The assay is described as follows: Cell viability assay (Cell Counting Kit-8, 3-day). It counts as cell-based, human. The conditions noted are these: Homo sapiens, 72 h, 72 hrs incubation. The method, then: (§4) The purpose of this cellular assay was to determine the effects of test compounds on the proliferation of human cancer cell lines NCI-H358 (ATCC-CRL5807) cells, AGS (ATCC-CRL-1739) cells, SW620 (ATCC-CCL-227) over a 3-day treatment period by quantifying the amount of NADPH present at endpoint using Cell Counting Kit-8.
(§5) Cells were seeded at 5,000 cells/well (NCI-H358), 2,000 cells/well (AGS) 2,000 cells/well (SW620) in 96-well assay plates (Corning-3699) and incubated overnight. On the day of the assay, diluted compounds were then added in a final concentration of 0.5% DMSO. After 72 hrs incubation, a tenth of the volume of cell counting kit 8 (Dnjindo-CK04) was added into each well. Read the signal (OD450 minus OD650) using EnVision after 2 hrs incubation. IC50 was determined by fitting a 4-parameter sigmoidal concentration response model.
On the technique in general: Tetrazolium dyes change colour on reduction, which living cells bring about.

Assay [4] relates to NCI-H358 cells (KRAS G12C). Briefly: Cell viability assay (Cell Counting Kit-8, 3-day). It counts as cell-based, human. The note with it: Homo sapiens, NCI-H358, 72 h, NCI-H358, 72 hrs incubation. The method, then: as §4, §5
The test system of a further assay is SW620 cells (KRAS G12V). Briefly: Cell viability assay (Cell Counting Kit-8, 3-day). It counts as cell-based, human. The conditions noted are these: Homo sapiens, SW-620; SW620, 72 hrs incubation. The method, then:
as §4, §5

KRAS G12C-BRAF complex, sequence (P01116-2 other isoform, or with tags, fused parts or gaps G12C): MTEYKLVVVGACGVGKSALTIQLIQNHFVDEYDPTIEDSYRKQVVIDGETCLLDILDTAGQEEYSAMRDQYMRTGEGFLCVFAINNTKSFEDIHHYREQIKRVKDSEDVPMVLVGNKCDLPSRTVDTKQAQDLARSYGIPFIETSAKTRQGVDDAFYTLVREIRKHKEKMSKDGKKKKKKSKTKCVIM
KRAS G12C-BRAF complex, sequence (P62937 whole entry): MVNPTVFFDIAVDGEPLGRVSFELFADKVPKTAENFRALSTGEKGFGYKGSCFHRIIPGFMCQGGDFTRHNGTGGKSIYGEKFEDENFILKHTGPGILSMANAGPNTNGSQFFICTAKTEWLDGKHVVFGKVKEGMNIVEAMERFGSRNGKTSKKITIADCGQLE

The term pIC50 denotes the IC50 on a negative log10 scale, so that one unit is a factor of ten. A high value points to a low IC50. For `CO[C@@H](C)c1ncc(N2CCN(CC(F)(F)F)CC2)cc1-c1c2c3cc(cc4c3n1CCC4)-c1csc(n1)C[C@H](NC(=O)[C@H]1C[C@@H]1C)C(=O)N1CCC[C@H](N1)C(=O)OCC(C)(C)C2` (atropisomer, axis not shown; (M)) [Example 3, (1S,2S)-N-[(7S,13S)-(20M)-20-[2-[(1S)-1-methoxyethyl]-5-[4-(2,2,2-trifluoroethyl)piperazin-1-yl]-3-pyridyl]-17,17-dimethyl-8,14-dioxo-15-oxa-4-thia-9,21,30,31-tetrazahexacyclo[23.3.1.1^2,5.1^9,13.0^19,27.0^21,26]hentriaconta-1 (28),2,5 (31), 19,25 (29),26-hexaen-7-yl]-2-methyl-cyclopropanecarboxamide], the pIC50 against KRAS G12C-BRAF complex was 7.50; in assay [1] it was 8.29; in assay [2], 7.61; in assay [3] it was 8.44.
`CO[C@@H](C)c1ncc(N2CCOCC2)cc1-c1c2c3cc(cc4c3n1[C@@H](C)CO4)-c1csc(n1)C[C@H](NC(=O)[C@H]1C[C@@H]1C)C(=O)N1CCC[C@H](N1)C(=O)OCC(C)(C)C2` (atropisomer, axis not shown; (M)) [Example 53, (1S,2S)-N-[(7S,13S,22S)-(20M)-20-[2-[(1S)-1-methoxyethyl]-5-morpholino-3-pyridyl]-17,17,22-trimethyl-8,14-dioxo-15,24-dioxa-4-thia-9,21,30,31-tetrazahexacyclo[23.3.1.1^2,5.1^9,13.0^19,27.0^21,26]hentriaconta-1 (28),2,5 (31), 19,25 (29),26-hexaen-7-yl]-2-methyl-cyclopropanecarboxamide]: the pIC50 is 7.18 on KRAS G12C-BRAF complex, 7.67 in assay [1], 6.75 in assay [2] and 7.61 in assay [3].
For the molecule `CO[C@@H](C)c1ncc(N2CCN(C)CC2)cc1-c1c2c3cc(cc4c3n1CCC4)-c1csc(n1)C[C@H](NC(=O)[C@H]1CC[C@](C)(O)CC1)C(=O)N1CCC[C@H](N1)C(=O)OCC(C)(C)C2` (atropisomer, axis not shown; (M)) [Example 71, trans-4-hydroxy-N-[(7S,13S)-(20M)-20-[2-[(1S)-1-methoxyethyl]-5-(4-methylpiperazin-1-yl)-3-pyridyl]-17,17-dimethyl-8,14-dioxo-15-oxa-4-thia-9,21,30,31-tetrazahexacyclo[23.3.1.1^2,5.1^9,13.0^19,27.0^21,26]hentriaconta-1 (28),2,5 (31), 19,25 (29),26-hexaen-7-yl]-4-methyl-cyclohexanecarboxamide], the negative-log IC50 (pIC50) is 7.54 against KRAS G12C-BRAF complex, 8.44 in assay [1], 7.29 in assay [2] and 8.19 in assay [3].
As to `CO[C@@H](C)c1ncc(N2CCN(C)CC2)cc1-c1c2c3cc(cc4c3n1CCC4)-c1csc(n1)C[C@H](NC(=O)C1CCOCC1)C(=O)N1CCC[C@H](N1)C(=O)OCC(C)(C)C2` (atropisomer, axis not shown; (M)) [Example 77, N-[(7S,13S)-(20M)-20-[2-[(1S)-1-methoxyethyl]-5-(4-methylpiperazin-1-yl)-3-pyridyl]-17,17-dimethyl-8,14-dioxo-15-oxa-4-thia-9,21,30,31-tetrazahexacyclo[23.3.1.1^2,5.1^9,13.0^19,27.0^21,26]hentriaconta-1 (28),2,5 (31),19,25 (29),26-hexaen-7-yl]tetrahydropyran-4-carboxamide], the negative logarithm of the IC50 (pIC50) is 7.38 against KRAS G12C-BRAF complex, 8.36 in assay [1], 7.58 in assay [2] and 8.40 in assay [3].
With `CO[C@@H](C)c1ncc(N2CCN(C)CC2)cc1-c1c2c3cc(cc4c3n1CCC4)-c1csc(n1)C[C@H](NC(=O)C1CCC(F)(F)C1)C(=O)N1CCC[C@H](N1)C(=O)OCC(C)(C)C2` (stereo partly drawn) [Example 65, 3,3-difluoro-N-[(7S,13S)-(20M)-20-[2-[(1S)-1-methoxyethyl]-5-(4-methylpiperazin-1-yl)-3-pyridyl]-17,17-dimethyl-8,14-dioxo-15-oxa-4-thia-9,21,30,31-tetrazahexacyclo[23.3.1.1^2,5.1^9,13.0^19,27.0^21,26]hentriaconta-1 (28),2,5 (31), 19,25 (29),26-hexaen-7-yl]cyclopentanecarboxamide], the negative logarithm of the IC50 (pIC50) against KRAS G12C-BRAF complex is 7.29; in assay [1], 8.64; in assay [2], 7.50; in assay [3], 8.30.
The like results for `CO[C@@H](C)c1ncc(N2CCN(C)CC2)cc1-c1c2c3cc(cc4c3n1CCC4)-c1csc(n1)C[C@H](NC(=O)C13CC(CO1)C3)C(=O)N1CCC[C@H](N1)C(=O)OCC(C)(C)C2` [Example 66, N-[(7S,13S)-(20M)-20-[2-[(1S)-1-methoxyethyl]-5-(4-methylpiperazin-1-yl)-3-pyridyl]-17,17-dimethyl-8,14-dioxo-15-oxa-4-thia-9,21,30,31-tetrazahexacyclo[23.3.1.1^2,5.1^9,13.0^19,27.0^21,26]hentriaconta-1 (28),2,5 (31), 19,25 (29),26-hexaen-7-yl]-2-oxabicyclo[2.1.1]hexane-1-carboxamide] were, in that order, 7.30, 8.59, 7.40 and 8.48.
For `CO[C@@H](C)c1ncc(N2CCN(C)CC2)cc1-c1c2c3cc(cc4c3n1CCCCC4)-c1csc(n1)C[C@H](NC(=O)[C@H]1[C@H](C)[C@@H]1C)C(=O)N1CCC[C@H](N1)C(=O)OCC(C)(C)C2` [Example 127, (1r,2R,3S)-N-[(7S,13S)-(20M)-20-[2-[(1S)-1-methoxyethyl]-5-(4-methylpiperazin-1-yl)-3-pyridyl]-17,17-dimethyl-8,14-dioxo-15-oxa-4-thia-9,21,32,33-tetrazahexacyclo[25.3.1.1^2,5.1^9,13.0^19,29.0^21,28]tritriaconta-1 (30),2,5 (33),19,27 (31),28-hexaen-7-yl]-2,3-dimethyl-cyclopropanecarboxamide], the pIC50 is 6.00 with AGS cells (KRAS G12D); 6.00 in assay [4]; 7.57 in the assay on SW620 cells (KRAS G12V); 7.52 in assay [1]; 6.16 in assay [2]; 7.52 in assay [3].
